From publication PMC11681159, “Bee pollen peptides as potent tyrosinase inhibitors with anti-melanogenesis effects in murine b16f10 melanoma cells and zebrafish embryos” (Scientific Reports, 2024) come the findings set out here.

Entries after “also recorded” stand apart in the source; their conditions may differ. Ends that are not written are not given here. Bounds are passed on as bounds.

One data set has as its system B16F10 melanoma cells. The experiment in a line: Cell viability assay (MTT). Particulars: 72 h. Format: cell-based, mouse. The method, then:
To perform the assay to establish cell viability, a 96-well plate was used for the seeding of the B16F10 cells at 5 × 10^3 cells/well. The cells were then left overnight to allow adherence. The VY-9 peptide at varying concentrations was then used to treat the cells for 72 h. MTT was produced as a 2.5 mg/mL solution in PBS whereupon 10 µL of this MTT solution was introduced to each well before incubating the plate for 4 h at 37 °C inside a humid 5% CO2 incubator. Following this step, the medium was removed the wells, and 200 µL of DMSO was added in its place. Finally, a microplate reader was employed to measure the absorbance for each of the wells at 540 nm, while arbutin (0.2 mM) served as the positive control. Each test was carried out in triplicate, with the findings presented in the form of mean ± standard deviation.

The next data set relates to Mitf. The experiment in a line: Western blot, MITF protein. It is filed as cell-based, mouse. The method, then:
(§1) Following this process, the cells were lysed using NP40 Cell Lysis Buffer with protease inhibitor cocktail supplementation. Next, 12% sodium dodecyl sulfate poly-acrylamide (SDS-PAGE) gel electrophoresis was used to extract equal quantities of protein from each sample, with subsequent transfer to PVD (polyvinylidene fluoride) membranes (Millipore, Bedford, MA, USA). The membrane was blocked overnight with 3% skimmed milk (w/v) in TBST with 0.5% Tween 20 at 4 °C and then washed thrice in TBST. The rabbit polyclonal anti-TYR antibody (dilution 1:1000), anti-TRP-1 antibody (dilution 1:1000), anti-TRP-2 antibody and anti-MITF antibody (dilution 1:1000) obtained from Abcam (USA), were used respectively to detect the TYR, TRP-1, TRP-2, and MITF bands. After thrice washing again in TBST, secondary antibodies (dilution 1:5000) were added to the membranes for 1 h of incubation at room temperature before another triplicate washing in TBST. Enhanced chemiluminescence horseradish peroxidase (HRP) substrates (GeneDirex, Taiwan) were then used in line with the guidance of the manufacturer to detect bound antibodies, while β-actin antibody was employed to evaluate the loading control. Gel band detection was performed using ImageJ software (version 1.54), available at https://imagej.net/ij/. The software facilitated the identification and quantification of protein expression levels.
In general terms: A western blot detects proteins with antibodies after separation by electrophoresis.

Another data set relates to zebrafish embryos. Briefly: Acute toxicity in zebrafish embryos. It is filed as in vivo. As for the experimental part:
To perform the test of acute toxicity, a total of 20 fertilized zebrafish embryos were collected at around 4 h after fertilization and added to each well in a 12-well plate. […] Incubation of the plate then took place until 48 h after fertilization at a temperature of 28.5 ± 1 °C. The test solutions were refreshed at 24 h after fertilization to allow the counting and removal of any dead embryos. Following exposure, a stereomicroscope (SZX16, Olympus, Japan) was used to record the embryo morphological effects. Meanwhile, a slightly modified version of a previously described melanin inhibitory assay was carried out[30]. The embryos were then homogenized using a cold lysis buffer (PBS pH 7.4, 1% Triton-X and 1% DMSF). The lysate then underwent 10 min of sonication before being placed in a centrifuge for 5 min at 10,000×g. The pellet was then removed from the centrifuge and dissolved in 200 µL of 1 N NaOH for 1 h at a temperature of 85 °C. This sample was subsequently vortexed and placed in the centrifuge for a further 5 min at 10,000×g. A microplate reader (Spectramax M5, Molecular Devices, USA) was then employed to determine the supernatant absorbance at 490 nm. Melanin content levels could then by calibrated by using the protein amount, and were reported in the form of a percentage compared to the untreated control. In the melanin inhibitory assay, the positive control used was phenylthiourea (PTU) solution (0.0015%).

The subject of another data set is Tyr. Briefly: Western blot, TYR protein. It is filed as cell-based, mouse. Particulars: B16F10, 48 h. As for the experimental part:
as §1, with “Western blot analysis was performed to measure TYR (TYR, TRP-1, TRP-2, and MITF) in B16F10 cells in line with the approach discussed by Yoon et al.[65]. whereby the B16F10 cells underwent treatment for 48 h using various peptide amounts ([…]) and also with arbutin (0.2 mM). Following” for “Following”, “Enhanced chemiluminescence horseradish peroxidase (HRP) substrates (GeneDirex, Taiwan) were then used in line with the guidance of the manufacturer to detect bound antibodies, while β-actin antibody was employed to evaluate the loading control. Gel band detection was performed using ImageJ software (version 1.54), available at https://imagej.net/ij/.” left out

The next data set relates to Trp-1. Briefly: Western blot, TRP-1 protein. Particulars: B16F10, 48 h. Format: cell-based, mouse. The method, then: as §1, with “Western blot analysis was performed to measure TYR (TYR, TRP-1, TRP-2, and MITF) in B16F10 cells in line with the approach discussed by Yoon et al.[65]. whereby the B16F10 cells underwent treatment for 48 h using various peptide amounts ([…]) and also with arbutin (0.2 mM). Following” for “Following”, “Enhanced chemiluminescence horseradish peroxidase (HRP) substrates (GeneDirex, Taiwan) were then used in line with the guidance of the manufacturer to detect bound antibodies, while β-actin antibody was employed to evaluate the loading control. Gel band detection was performed using ImageJ software (version 1.54), available at https://imagej.net/ij/.” left out

With “VDGYPAAGY [VY-9, Val-Asp-Gly-Tyr-Pro-Ala- Ala-Gly-Tyr]”, the “cytotoxicity in B16F10 cells” value with B16F10 melanoma cells (0 to 1.6 µM (abstract: 0.2–1.6 µM)) is given as “negligible cytotoxicity; also recorded: no clear signs of cytotoxicity”. Besides, the B16F10 cell viability in the data set with B16F10 melanoma cells (0 to 1.6 µM, triplicate) is > 50%. For the same sequence, the “MITF protein expression vs control” value with Mitf (1.6 µM, B16F10, 48 h) is “the expression of all proteins decreased compared to the control”. For the same sequence, the “concentration from which MITF protein expression decreased” value in the data set on Mitf (B16F10, 48 h, western blot) came to 0.4 µM. The “MITF protein expression vs arbutin” value in the data set on Mitf (VY-9 1.6 µM vs arbutin 0.2 mM, 48 h) is recorded as “only MITF showed a lower expression level”. The embryo development entry with zebrafish embryos (20 µM) is “the development of the embryo was significantly retarded”. Moreover, in the data set on zebrafish embryos (2–10 µM, vs control), the “embryo survival / malformation” value was “no significant influence; also recorded: no significant difference in the rates for survival or malformation”. Also, the “no observed effect concentration (NOEC)” value in the data set with zebrafish embryos (zebrafish embryos, to 48 h after fertilization, 28.5 °C) is 10 µM. For the same sequence, the “TYR protein expression vs control” value in the data set with Tyr (1.6 µM) is “the expression of all proteins decreased compared to the control”. Moreover, the “concentration from which TYR protein expression decreased” value in the data set with Tyr (western blot) was found to be 0.4 µM. Besides, in the data set with Trp-1 (1.6 µM), the “TRP-1 protein expression vs control” value is “the expression of all proteins decreased compared to the control”. Moreover, the “concentration from which TRP-1 protein expression gradually decreased” value with Trp-1 (western blot) turned out to be 0.2 µM.
